In brackets after ≈: the same amount, converted by molar mass. Where a name gives a salt, the structure may show the parent alone. Read-outs that look alike come from different tables or passages of the source.
What was measured:
[1] = test system: histamine paw oedema in guinea pigs; test: Histamine paw oedema in guinea pigs; assay type: in vivo, guinea pig; settings: Cavia porcellus, oral dose giving paw reaction below 10 units 10 minutes after 50 μg histamine s.p., 2 hours after dosing, read-out: Anaphylaxis in guinea pigs oral effective dose in mg/kg: Histamine oedema
Method: Guinea pigs, weighing between 400 and 500 g, are sensitized to ovalbumin by subplantar (s.p.) injection of 0.05 ml of antiserum in the left hind paw. The animals are then starved and orally treated, 24 hours after the sensitization, with saline (=control animals) or a particular dose of the compound under investigation. The histamine injection (at a dose of 50 μg) was given s.p. in the right hind paw 2 hours after the oral pretreatment with the compound.

[2] = test system: Guinea-pig ileum strips, histamine-induced contraction; test: Anti-histamine activity in "vitro": histamine-induced spasms of guinea-pig ileum strips; assay type: cell-based; settings: Cavia porcellus, 5 min, histamine 0.5 mg/liter, 5 minutes incubation, concentration giving significant inhibition (50%) of the contraction
Method: The histamine--(0.5 mg/liter) induced spasms are recorded Kymographically with an isotonic lever giving a 5-fold magnification.

[3] = test system: Guinea pigs sensitized to ovalbumin (anaphylactic shock); test: Anaphylaxis in guinea pigs: protection against death after ovalbumin challenge (survival); assay type: in vivo, guinea pig; settings: Cavia porcellus, estimated ED50, oral, protection against death after i.v. 0.6 mg ovalbumin, read-out: Anaphylaxis in guinea pigs oral effective dose in mg/kg: Survival
Method: The anti-anaphylactic and antihistaminic effects of the subject compounds (I) and salts thereof are studied "in vivo" in guinea pigs.
Guinea pigs, weighing between 400 and 500 g, are sensitized to ovalbumin by subplantar (s.p.) injection of 0.05 ml of antiserum in the left hind paw. The animals are then starved and orally treated, 24 hours after the sensitization, with saline (=control animals) or a particular dose of the compound under investigation.
The histamine injection (at a dose of 50 μg) was given s.p. in the right hind paw 2 hours after the oral pretreatment with the compound. The diameters of both hind paws are first measured before the histamine injection is given and again 10 minutes thereafter. The animals are challenged intravenously with 0.6 mg of ovalbumin 30 minutes after the histamine injection. All control animals develop typical primary anaphylactic shock symptoms (coughing, difficult breathing, convulsions) and 85% of these control animals die within 15 minutes after the ovalbumin injection. Protection against death is used as the criterion for possible drug effects and the estimated ED50 -value, i.e. the oral dose whereby the protection is observed in 50% of the guinea pigs, is listed in the tables below.

[4] = Table I-a, read-out: Histamine in "vitro" (ileum) effective conc.
[5] = Table I-b, read-out: Histamine in "vitro" (ileum) effective conc.
[6] = Table I-e, read-out: Histamine in "vitro" (ileum) effective dose

Question: With Cc1ccc(C(c2ccccc2)N2CCN(CCCn3c(=O)[nH]c4ccccc43)CC2)cc1 (stereo not drawn) [1,3-dihydro-1-[3-{4-[(4-methylphenyl)phenylmethyl]-1-piperazinyl}-propyl}-2H-benzimidazol-2-one] as the compound, how does the minimal effective dose ([1]; Table I-a) read?
Answer: < 2.5 mg/kg

Question: And the IC50 [2, 4]?
Answer: 0.08 µg/mL (≈ 0.182 µM)

Question: What about the ED50 ([3]; Table I-a) of the same compound?
Answer: < 2.5 mg/kg

Question: Which results are given for O=c1[nH]c2ccccc2n1CCCN1CCN(C(c2ccccc2)c2ccc([N+](=O)[O-])cc2)CC1 (stereo not drawn) [1,3-dihydro-1-[3-{4-[(4-nitrophenyl)phenylmethyl]-1-piperazinyl}propyl]-2H-benzimidazol-2-one]?
Answer: minimal effective dose ([1]; Table I-a): < 2.5 mg/kg; IC50 [2, 4]: 0.16 µg/mL (≈ 0.339 µM); ED50 ([3]; Table I-a): < 2.5 mg/kg

Question: How did the minimal effective dose ([1]; Table I-d) turn out when O=c1[nH]c2ccccc2n1CCN1CCC(OC(c2ccc(F)cc2)c2ccc(F)cc2)CC1 [1-[2-{4-[bis(4-fluorophenyl)methoxy]-1-piperidinyl}ethyl]-1,3-dihydro-2H-benzimidazol-2-one hydrochloride.hemihydrate] was run?
Answer: 0.31 mg/kg

Question: What about the IC50 ([2]; Table I-d, read-out: Histamine in "vitro" (ileum) effective dose) of the same compound?
Answer: 0.0025 µg/mL

Question: What about the ED50 ([3]; Table I-d) of the same compound?
Answer: 0.31 mg/kg

Question: What does the source list for O=c1[nH]c2ccccc2n1CCN1CCN(C(c2ccc(F)cc2)c2ccc(F)cc2)CC1 [1-[2-{4-[bis(4-fluorophenyl)methyl]-1-piperazinyl}ethyl]-1,3-dihydro-2H-benzimidazol-2-one hemihydrate]?
Answer: minimal effective dose ([1]; Table I-a): 0.63 mg/kg; IC50 [2, 4]: 0.02 µg/mL; ED50 ([3]; Table I-a): 0.63 mg/kg

Question: Which results are given for O=c1[nH]c2ccccc2n1CCN1CCN(C(c2ccccc2)c2ccc(F)cc2)CC1 (stereo not drawn) [1-[2-{4-[α-(4-fluorophenyl)-α-phenylmethyl]-1-piperazinyl}ethyl]-1,3-dihydro-2H-benzimidazol-2-one]?
Answer: minimal effective dose ([1]; Table I-a): 0.16 mg/kg; IC50 [2, 4]: 0.02 µg/mL (≈ 0.0465 µM); ED50 ([3]; Table I-a): 0.31 mg/kg

Question: For O=c1[nH]c2ccccc2n1CCCN1CCN(C(c2ccccc2)c2ccccc2Cl)CC1 (stereo not drawn) [1-[3-{4-[(2-chlorophenyl)phenylmethyl]-1-piperazinyl}-propyl]-1,3-dihydro-2H-benzimidazol-2-one], which IC50 [2, 4] is on record?
Answer: 0.08 µg/mL (≈ 0.174 µM)

Question: Which minimal effective dose ([1]; Table I-a) does the source give for O=c1[nH]c2ccccc2n1CCCN1CCN(C(c2ccccc2)c2ccccc2F)CC1 (stereo not drawn) [1-[3-{4-[(2-fluorophenyl)phenylmethyl]-1-piperazinyl}propyl]-1,3-dihydro-2H-benzimidazol-2-one] here?
Answer: < 2.5 mg/kg

Question: And the IC50 [2, 4]?
Answer: 0.02 µg/mL (≈ 0.045 µM)

Question: What about the ED50 ([3]; Table I-a) of the same compound?
Answer: < 2.5 mg/kg

Question: With CC(CN1CCN(C(c2ccccc2)c2ccccc2)CC1)Cn1cnc2ccccc21 (stereo not drawn) [1-{3-[4-(diphenylmethyl)-1-piperazinyl]-2-methylpropyl}-1H-benzimidazole trihydrochloride.hemihydrate] as the compound, how does the IC50 [2, 5] read?
Answer: 0.02 µg/mL

Question: How did the IC50 [2, 4] turn out when CNC(=O)n1c(=O)n(CCCN2CCN(C(c3ccccc3)c3ccccc3)CC2)c2ccccc21 [3-{3-[4-(diphenylmethyl)-1-piperazinyl]propyl}-2,3-dihydro-N-methyl-2-oxo-1H-benzimidazole-1-carboxamide] was run?
Answer: 0.02 µg/mL (≈ 0.0414 µM)

Question: With O=c1[nH]c2cccc(Cl)c2n1CCCN1CCN(C(c2ccccc2)c2ccccc2)CC1 [4-chloro-3-{3-[4-(diphenylmethyl)-1-piperazinyl]propyl}-1,3-dihydro-2H-benzimidazol-2-one] as the compound, how does the IC50 [2, 4] read?
Answer: 0.08 µg/mL (≈ 0.174 µM)

Question: What about the ED50 ([3]; Table I-a) of the same compound?
Answer: ≥ 2.5 mg/kg

Question: With O=c1n(CCCN2CCN(C(c3ccccc3)c3ccccc3)CC2)c2ccc(Cl)cc2n1-c1ccccc1 [5-chloro-1-{3-[4-(diphenylmethyl)-1-piperazinyl]propyl}-1,3-dihydro-3-phenyl-2H-benzimidazol-2-one dihydrochloride.hemihydrate] as the compound, how does the IC50 [2, 4] read?
Answer: 0.08 µg/mL

Question: With Clc1ccc2c(c1)nc(Cc1ccccc1)n2CCCN1CCN(C(c2ccccc2)c2ccccc2)CC1 [5-chloro-1-{3-[4-(diphenylmethyl)-1-piperazinyl]propyl}-2-(phenylmethyl)-1H-benzimidazole trihydrochloride.hydrate] as the compound, how does the ED50 ([3]; Table I-b) read?
Answer: 2.5 mg/kg

Question: For Clc1ccc2c(c1)nc(C1CCCCC1)n2CCCN1CCN(C(c2ccccc2)c2ccccc2)CC1 [5-chloro-2-cyclohexyl-1-{5-[4-diphenylmethyl)-1-piperazinyl]propyl}-1H-benzimidazole], which minimal effective dose ([1]; Table I-b) is on record?
Answer: 2.5 mg/kg

Question: And the ED50 ([3]; Table I-b)?
Answer: 0.63 mg/kg

Question: Which ED50 ([3]; Table I-b) does the source give for Clc1ccc2nc(C3CCCCC3)n(CCCN3CCN(C(c4ccccc4)c4ccccc4)CC3)c2c1 [6-chloro-2-cyclohexyl-1-[3-[4-(diphenylmethyl)-1-piperazinyl]propyl}-1H-benzimidazole] here?
Answer: 2.5 mg/kg

Question: How did the IC50 [2, 5] turn out when CCc1nc2cc(Cl)ccc2n1CCCN1CCN(C(c2ccccc2)c2ccccc2)CC1 [I-b: M=C2H5, R1=5-Cl, (CH2)3, R6=H, R7=H, 5-chloro-1-{3-[4-(diphenylmethyl)-1-piperazinyl]propyl}-2-ethyl-1H-benzimidazole trihydrochloride.hydrate] was run?
Answer: 0.01 µg/mL

Question: CCc1nc2ccccc2n1CCN1CCN(C(c2ccccc2)c2ccccc2)CC1 [I-b: M=C2H5, R1=H, (CH2)2, R6=H, R7=H, 1-{2-[4-(diphenylmethyl)-1-piperazinyl]ethyl}-2-ethyl-1H-benzimidazole trihydrochloride.hydrate] was tested. Which IC50 [2, 5] did it give?
Answer: ≥ 0.16 µg/mL

Question: Clc1ccc2nc(-c3ccccc3)n(CCCN3CCN(C(c4ccccc4)c4ccccc4)CC3)c2c1 [I-b: M=C6H5, R1=6-Cl, (CH2)3, R6=H, R7=H, 6-chloro-1-{3-[4-(diphenylmethyl)-1-piperazinyl]propyl}-2-phenyl-1H-benzimidazole] was tested. Which ED50 ([3]; Table I-b) did it give?
Answer: 2.5 mg/kg

Question: For c1ccc(-c2nc3ccccc3n2CCCN2CCN(C(c3ccccc3)c3ccccc3)CC2)cc1 [I-b: M=C6H5, R1=H, (CH2)3, R6=H, R7=H, 1-{3-[4-(diphenylmethyl)-1-piperazinyl]propyl}-2-phenyl-1H-benzimidazole], which IC50 [2, 5] is on record?
Answer: 0.08 µg/mL (≈ 0.164 µM)

Question: For c1ccc(Cc2nc3ccccc3n2CCCN2CCN(C(c3ccccc3)c3ccccc3)CC2)cc1 [I-b: M=C6H5CH2, R1=H, (CH2)3, R6=H, R7=H, 1-{3-[4-(diphenylmethyl)-1-piperazinyl]propyl}-2-(phenylmethyl)-1H-benzimidazole trihydrochloride.trihydrate], which IC50 [2, 5] is on record?
Answer: ≥ 0.16 µg/mL

Question: With CC(=O)N=c1[nH]c2ccccc2n1CCCN1CCN(C(c2ccccc2)c2ccccc2)CC1 [I-b: M=CH3CONH, R1=H, (CH2)3, R6=H, R7=H, N-[1-{3-[4-(diphenylmethyl)-1-piperazinyl]propyl}-1,3-dihydro-2H-benzimidazol-2-ylidene]acetamide] as the compound, how does the IC50 [2, 5] read?
Answer: ≥ 0.16 µg/mL

Question: What about the ED50 ([3]; Table I-b) of the same compound?
Answer: 2.5 mg/kg

Question: Which results are given for O=c1[nH]c2ccccc2n1CCCN1CCN(C(c2ccncc2)c2ccc(F)cc2)CC1 (stereo not drawn) [I-e: Ar1=4-FC6H4, Ar2=4-pyridinyl, 1-[3-{4-[(4-fluorophenyl)(4-pyridinyl)methyl]-1-piperazinyl}propyl]-1,3-dihydro-2H-benzimidazol-2-one]?
Answer: minimal effective dose ([1]; Table I-e): ≤ 2.5 mg/kg; IC50 [2, 6]: 0.16 µg/mL (≈ 0.359 µM)

Question: Cc1ccc(C)c(C(c2ccccc2)N2CCN(CCCn3c(=O)[nH]c4ccccc43)CC2)c1 (stereo not drawn) [I-e: Ar1=C6H5, Ar2=2,5-(CH3)2C6H3, 1-[3-{4-[(2,5-dimethylphenyl)phenylmethyl]-1-piperazinyl}propyl]-1,3-dihydro-2H-benzimidazol-2-one] was tested. Which IC50 [2, 6] did it give?
Answer: 0.16 µg/mL (≈ 0.352 µM)

Question: What does the source list for O=c1[nH]c2ccccc2n1CCCN1CCN(C(c2ccccc2)c2ccccn2)CC1 (stereo not drawn) [I-e: Ar1=C6H5, Ar2=2-pyridinyl, 1,3-dihydro-1-[3-{4-[phenyl(2-pyridinyl)methyl]-1-piperazinyl}propyl]-2H-benzimidazol-2-one]?
Answer: minimal effective dose ([1]; Table I-e): 2.5 mg/kg; IC50 [2, 6]: 0.16 µg/mL (≈ 0.374 µM)

Question: Which minimal effective dose ([1]; Table I-e) does the source give for O=c1[nH]c2ccccc2n1CCCN1CCN(C(c2ccccc2)c2cccnc2)CC1 (stereo not drawn) [I-e: Ar1=C6H5, Ar2=3-pyridinyl, 1,3-dihydro-1-[3-{4-[phenyl(3-pyridinyl)methyl]-1-piperazinyl}propyl]-2H-benzimidazol-2-one] here?
Answer: < 2.5 mg/kg

Question: And the IC50 [2, 6]?
Answer: 0.08 µg/mL (≈ 0.187 µM)

Source: patent publication US4250176A, “Piperazine derivatives” (priority 1979, dated 1981)
